Tests used:
Format in all cases: in vivo
Spodoptera littoralis = Spodoptera littoralis (Egyptian Cotton Leafworm) cotton leaf disc spray test; conditions: foliar, 72 h, 200 ppm spray on cotton leaf discs, L1 larvae, mortality, feeding behavior, growth regulation 3 DAT
Heliothis virescens = Heliothis virescens (Tobacco Budworm) egg test on artificial diet; conditions: 96 h, 200 ppm (concentration in well 18 ppm), eggs 0-24 h old on artificial diet, 4 days, egg mortality, larval mortality, growth regulation
Plutella xylostella = Plutella xylostella (Diamond Back Moth) artificial diet MTP test; conditions: 144 h, 200 ppm (concentration in well 18 ppm), L2 larvae, 6 days, larval mortality, growth regulation
Diabrotica balteata = Diabrotica balteata (Corn Root Worm) artificial diet MTP test; conditions: 120 h, 200 ppm (concentration in well 18 ppm), L2 larvae, 5 days, larval mortality, growth regulation
Thrips tabaci = Thrips tabaci (Onion Thrips) sunflower leaf disc spray test; conditions: foliar, 168 h, 200 ppm spray on sunflower leaf discs, population of mixed ages, 7 days, mortality

Measured: pest or weed control at 200 ppm

COc1c(NC(=O)c2cc(C)oc2C)cccc1C(=O)Nc1c(Cl)cc(C(F)(C(F)(F)F)C(F)(F)C(F)(F)F)cc1Br (centres unmarked) [B58]
≥ 80%: Spodoptera littoralis | Heliothis virescens | Plutella xylostella | Diabrotica balteata | Thrips tabaci

COc1c(NC(=O)c2ccc([N+](=O)[O-])c(N(C)C)c2)cccc1C(=O)Nc1c(Cl)cc(C(F)(C(F)(F)F)C(F)(F)C(F)(F)F)cc1Br (centres unmarked) [B175]
≥ 80%: Spodoptera littoralis | Heliothis virescens | Plutella xylostella | Thrips tabaci

COc1c(NC(=O)c2ccccc2Cl)cccc1C(=O)Nc1c(C)cc(C(F)(C(F)(F)F)C(F)(F)C(F)(F)F)cc1C (centres unmarked) [F3]
≥ 80%: Spodoptera littoralis | Heliothis virescens | Plutella xylostella | Diabrotica balteata | Thrips tabaci

COc1c(NC(=O)c2ccc([N+](=O)[O-])c(C)c2I)cccc1C(=O)Nc1c(Cl)cc(C(F)(C(F)(F)F)C(F)(F)C(F)(F)F)cc1Br (centres unmarked) [B161]
≥ 80%: Heliothis virescens | Plutella xylostella | Diabrotica balteata | Thrips tabaci

COc1c(NC(=O)c2cc(Cl)ccc2Cl)cccc1C(=O)Nc1c(Cl)cc(C(F)(C(F)(F)F)C(F)(F)C(F)(F)F)cc1Br (centres unmarked) [B27]
≥ 80%: Spodoptera littoralis | Heliothis virescens | Plutella xylostella | Diabrotica balteata | Thrips tabaci

CCc1cc(C(F)(C(F)(F)F)C(F)(F)C(F)(F)F)cc(C)c1NC(=O)c1cccc(NC(=O)c2cccc(Cl)c2)c1OC (centres unmarked) [A8]
≥ 80%: Spodoptera littoralis | Heliothis virescens | Plutella xylostella | Diabrotica balteata | Thrips tabaci

COc1c(NC(=O)c2ccnc(C(F)(F)F)c2Cl)cccc1C(=O)Nc1c(Cl)cc(C(F)(C(F)(F)F)C(F)(F)C(F)(F)F)cc1Br (centres unmarked) [B115]
≥ 80%: Spodoptera littoralis | Heliothis virescens | Plutella xylostella | Diabrotica balteata | Thrips tabaci

COc1c(NC(=O)c2cccc(C)c2[N+](=O)[O-])cccc1C(=O)Nc1c(Cl)cc(C(F)(C(F)(F)F)C(F)(F)C(F)(F)F)cc1Br (centres unmarked) [B87]
≥ 80%: Spodoptera littoralis | Heliothis virescens | Plutella xylostella | Diabrotica balteata | Thrips tabaci

COc1c(NC(=O)c2ccccc2C(F)(F)F)cccc1C(=O)Nc1c(Cl)cc(C(F)(C(F)(F)F)C(F)(F)C(F)(F)F)cc1Br (centres unmarked) [B20]
≥ 80%: Spodoptera littoralis | Heliothis virescens | Plutella xylostella | Diabrotica balteata | Thrips tabaci

COc1c(NC(=O)c2ccc(-c3ccccc3)o2)cccc1C(=O)Nc1c(Cl)cc(C(F)(C(F)(F)F)C(F)(F)C(F)(F)F)cc1Br (centres unmarked) [B49]
≥ 80%: Thrips tabaci

COc1c(NC(=O)c2ccc(F)cc2F)cccc1C(=O)Nc1c(Cl)cc(C(F)(C(F)(F)F)C(F)(F)F)cc1Cl [E22]
≥ 80%: Spodoptera littoralis | Heliothis virescens | Plutella xylostella | Diabrotica balteata | Thrips tabaci

COc1c(NC(=O)c2ccccc2F)cccc1C(=O)Nc1c(Cl)cc(C(F)(C(F)(F)F)C(F)(F)C(F)(F)F)cc1Cl (centres unmarked) [C3]
≥ 80%: Spodoptera littoralis | Heliothis virescens | Plutella xylostella | Diabrotica balteata | Thrips tabaci

COc1c(NC(=O)c2ccccc2C(F)(F)F)cccc1C(=O)Nc1c(Cl)cc(C(F)(C(F)(F)F)C(F)(F)F)cc1Cl [E18]
≥ 80%: Spodoptera littoralis | Heliothis virescens | Plutella xylostella | Diabrotica balteata | Thrips tabaci

COc1c(NC(=O)c2cc(C(F)(F)F)n(C)n2)cccc1C(=O)Nc1c(Cl)cc(C(F)(C(F)(F)F)C(F)(F)C(F)(F)F)cc1Br (centres unmarked) [B92]
≥ 80%: Spodoptera littoralis | Diabrotica balteata | Thrips tabaci

CCc1cc(C(F)(C(F)(F)F)C(F)(F)C(F)(F)F)cc(C)c1NC(=O)c1cccc(NC(=O)c2ccccc2)c1OC (centres unmarked) [A19]
≥ 80%: Spodoptera littoralis | Heliothis virescens | Plutella xylostella | Diabrotica balteata | Thrips tabaci

COc1c(NC(=O)c2c(-c3ccccc3)noc2C)cccc1C(=O)Nc1c(Cl)cc(C(F)(C(F)(F)F)C(F)(F)C(F)(F)F)cc1Br (centres unmarked) [B46]
≥ 80%: Thrips tabaci

COc1c(NC(=O)c2ccc([N+](=O)[O-])c(C)c2Br)cccc1C(=O)Nc1c(Cl)cc(C(F)(C(F)(F)F)C(F)(F)C(F)(F)F)cc1Br (centres unmarked) [B162]
≥ 80%: Heliothis virescens | Plutella xylostella | Diabrotica balteata | Thrips tabaci

COc1c(NC(=O)c2cnccc2C(F)(F)F)cccc1C(=O)Nc1c(Cl)cc(C(F)(C(F)(F)F)C(F)(F)C(F)(F)F)cc1Br (centres unmarked) [B126]
≥ 80%: Spodoptera littoralis | Heliothis virescens | Plutella xylostella | Diabrotica balteata

COc1cccc(C(=O)Nc2cccc(C(=O)Nc3c(C)cc(C(F)(C(F)(F)F)C(F)(F)C(F)(F)F)cc3C)c2OC)c1 (centres unmarked) [F22]
≥ 80%: Spodoptera littoralis | Heliothis virescens | Plutella xylostella | Diabrotica balteata

COc1c(NC(=O)c2cc(C)n(C)n2)cccc1C(=O)Nc1c(Cl)cc(C(F)(C(F)(F)F)C(F)(F)C(F)(F)F)cc1Br (centres unmarked) [B100]
≥ 80%: Spodoptera littoralis | Heliothis virescens | Plutella xylostella | Diabrotica balteata

COc1c(NC(=O)c2ccccc2Cl)cccc1C(=O)Nc1c(Cl)cc(C(F)(C(F)(F)F)C(F)(F)F)cc1Cl [E3]
≥ 80%: Spodoptera littoralis | Heliothis virescens | Diabrotica balteata | Thrips tabaci

COc1c(NC(=O)c2cccc([N+](=O)[O-])c2Br)cccc1C(=O)Nc1c(Cl)cc(C(F)(C(F)(F)F)C(F)(F)C(F)(F)F)cc1Br (centres unmarked) [B85]
≥ 80%: Spodoptera littoralis | Heliothis virescens | Plutella xylostella | Diabrotica balteata

COc1c(NC(=O)c2ccc(C(F)(F)F)cc2F)cccc1C(=O)Nc1c(Cl)cc(C(F)(C(F)(F)F)C(F)(F)C(F)(F)F)cc1Br (centres unmarked) [B167]
≥ 80%: Spodoptera littoralis | Heliothis virescens | Diabrotica balteata | Thrips tabaci

COc1c(NC(=O)c2ccc([N+](=O)[O-])c(C)c2Cl)cccc1C(=O)Nc1c(Cl)cc(C(F)(C(F)(F)F)C(F)(F)C(F)(F)F)cc1Br (centres unmarked) [B163]
≥ 80%: Heliothis virescens | Plutella xylostella | Diabrotica balteata | Thrips tabaci

COc1c(NC(=O)c2cnccn2)cccc1C(=O)Nc1c(Cl)cc(C(F)(C(F)(F)F)C(F)(F)C(F)(F)F)cc1Br (centres unmarked) [B56]
≥ 80%: Spodoptera littoralis | Heliothis virescens | Plutella xylostella | Diabrotica balteata

From patent publication US20120295907A1, “INSECTICIDAL COMPOUNDS” (SYNGENTA CROP PROTECTION, LLC, priority 2009, published 2012)
